This is an account of results in ChEMBL document CHEMBL3856236, “Discovery of 6-Diazo-5-oxo-l-norleucine (DON) Prodrugs with Enhanced CSF Delivery in Monkeys: A Potential Treatment for Glioblastoma” (J Med Chem, 2016).

Calls of active or inactive are those of the source. The rule behind the calls is not given here.

Data set [1] can be described thus: Metabolic stability in mouse plasma assessed as compound remaining at 10 uM at 60 mins by LC-MS/MS analysis. It counts as ADME, cell-free. Conditions: read-out: Stability.
Data set [2] can be described thus: Metabolic stability in monkey plasma assessed as compound remaining at 10 uM at 60 mins by LC-MS/MS analysis. It counts as ADME, cell-free, Macaca mulatta. As to conditions: rhesus monkey, read-out: Stability.
Data set [3] in a line: Metabolic stability in human plasma assessed as compound remaining at 10 uM at 60 mins by LC-MS/MS analysis. It is filed as ADME, cell-free. As to conditions: read-out: Stability.
Data set [4] can be described thus: Chemical stability of the compound at 10 uM at pH 7.4 after 1 hr by LC-MS/MS analysis. It counts as physicochemical. Conditions: buffer; for remaining at 1 h, 10 µM: pH 7.4, read-out: Stability; for Stability: pH 7.4, 1 h, 10 µM.
The nature of data set [5]: Cmax in C57BL/6 mouse plasma assessed as 6-Diazo-5-oxo-L-norleucine levels at 1.8 mg/kg administered via oral gavage by LC-MS analysis. It is filed as ADME, organism-based. Set-up: dose 1.8 mg/kg, route oral. Conditions: in vivo.
Data set [6] in a line: Cmax in C57BL/6 mouse brain assessed as 6-Diazo-5-oxo-L-norleucine levels at 1.8 mg/kg administered via oral gavage by LC-MS analysis. It is filed as ADME, organism-based. Also noted: dose 1.8 mg/kg, route oral. As to conditions: in vivo.
Data set [7] in a line: Tmax in C57BL/6 mouse plasma assessed as 6-Diazo-5-oxo-L-norleucine levels at 1.8 mg/kg administered via oral gavage by LC-MS analysis. It counts as ADME, organism-based. As to conditions: in vivo.
A short description of data set [8]: AUC (0 to t) in C57BL/6 mouse plasma assessed as 6-Diazo-5-oxo-L-norleucine levels at 1.8 mg/kg administered via oral gavage measured at 10 to 90 mins post dose by LC-MS analysis. It counts as ADME, organism-based. Conditions: in vivo.
Data set [9] can be described thus: AUC (0 to t) in C57BL/6 mouse brain assessed as 6-Diazo-5-oxo-L-norleucine levels at 1.8 mg/kg administered via oral gavage measured at 10 to 90 mins post dose by LC-MS analysis. It counts as ADME, organism-based. As to conditions: in vivo.
A short description of data set [10]: Ratio of drug level in C57BL/6 mouse brain to plasma assessed as 6-Diazo-5-oxo-L-norleucine levels at 1.8 mg/kg administered via oral gavage. It is filed as ADME, organism-based.
The nature of data set [11]: Cmax in pig-tail monkey plasma assessed as 6-Diazo-5-oxo-L-norleucine levels at 3.6 mg/kg, iv by LC-MS analysis. Also noted: dose 3.6 mg/kg, route intravenous. It counts as ADME, organism-based. Conditions: macaca nemestrina, in vivo.
A short description of data set [12]: Tmax in pig-tail monkey plasma assessed as 6-Diazo-5-oxo-L-norleucine levels at 3.6 mg/kg, iv by LC-MS analysis. It is filed as ADME, organism-based. As to conditions: macaca nemestrina, in vivo.
The nature of data set [13]: AUC (0 to t) in pig-tail monkey plasma assessed as 6-Diazo-5-oxo-L-norleucine levels at 3.6 mg/kg, iv measured at 0.25 to 6 hrs post dose by LC-MS analysis. It is filed as ADME, organism-based. Set-up: time upper 6 hr, dose 3.6 mg/kg, time lower 0.25 hr, route intravenous. As to conditions: macaca nemestrina, in vivo.
The nature of data set [14]: Prodrug activation in pig-tail monkey CSF assessed as 6-Diazo-5-oxo-L-norleucine levels at 3.6 mg/kg, iv measured at 30 mins post dose by LC-MS analysis. It counts as organism-based, Cerebrospinal fluid. Conditions: macaca nemestrina, in vivo, 0.5 h.
In data set [15] the test system is Mus musculus. In words: In vivo inhibition of glutamine metabolism in RHFoxn1nu mouse xenografted with human U87 cells assessed as accumulation of endogenous glutamine in tumor at 0.8 mg/kg, ip administered as single dose measured after 2 hrs by HPLC-MS analysis. It counts as functional, organism-based. As to conditions: U-87MG ATCC. (In general: Xenograft models place foreign cells or tissue in a host animal.)

The nature of data set [16]: Antitumor activity against human U87 cells xenografted in RHFoxn1nu mouse assessed as tumor volume at 0.8 mg/kg, ip qd for 6 days measured immediately post dose (reference value: 409 mm3). It counts as functional, U-87MG ATCC.
Data set [17] is described as follows: Antitumor activity against human U87 cells xenografted in RHFoxn1nu mouse assessed as tumor volume at 0.8 mg/kg, ip qd for 6 days measured on day 2 post dose (reference value: 401 mm3). It counts as functional, U-87MG ATCC.
The nature of data set [18]: Antitumor activity against human U87 cells xenografted in RHFoxn1nu mouse assessed as tumor volume at 0.8 mg/kg, ip qd for 6 days measured on day 4 post dose (reference value: 454 mm3). It is filed as functional, U-87MG ATCC.
A short description of data set [19]: Antitumor activity against human U87 cells xenografted in RHFoxn1nu mouse assessed as tumor volume at 0.8 mg/kg, ip qd for 6 days measured on day 6 post dose (reference value: 533 mm3). It is filed as functional, U-87MG ATCC.
Data set [20] concerns Mus musculus. In words: Toxicity in RHFoxn1nu mouse xenografted with human U87 cells assessed as weight loss at 0.8 mg/kg, ip qd for 6 days. As to conditions: in vivo, 144 h. It is filed as organism-based, U-87MG ATCC.
Data set [21] relates to Mus musculus. In words: Toxicity in RHFoxn1nu mouse xenografted with human U87 cells assessed as hunching at 0.8 mg/kg, ip qd for 6 days. As to conditions: in vivo, 144 h. It is filed as organism-based, U-87MG ATCC.
In data set [22] the test system is Mus musculus. In words: Toxicity in RHFoxn1nu mouse xenografted with human U87 cells assessed as ptosis at 0.8 mg/kg, ip qd for 6 days. It is filed as organism-based, U-87MG ATCC. Conditions: in vivo, 144 h.
The subject of data set [23] is Mus musculus. In words: Toxicity in RHFoxn1nu mouse xenografted with human U87 cells assessed as lethargy at 0.8 mg/kg, ip qd for 6 days. It counts as organism-based, U-87MG ATCC. As to conditions: in vivo, 144 h.
Data set [24] in a line: Antitumor activity against human U87 cells xenografted in RHFoxn1nu mouse assessed as reduction in tumor volume at 0.8 mg/kg, ip qd for 6 days measured 2 to 6 days post dose. It counts as functional, U-87MG ATCC. Conditions: U-87 MG.
Data set [25] is described as follows: Cmax in C57BL/6 mouse plasma at 0.8 mg/kg administered via oral gavage by LC-MS analysis. It is filed as ADME, organism-based. Set-up: dose 0.8 mg/kg, route oral.
Data set [26] in a line: Cmax in C57BL/6 mouse brain at 0.8 mg/kg administered via oral gavage by LC-MS analysis. It is filed as ADME, organism-based. Also noted: dose 0.8 mg/kg, route oral. Conditions: in vivo.
The nature of data set [27]: Tmax in C57BL/6 mouse plasma at 0.8 mg/kg administered via oral gavage by LC-MS analysis. It counts as ADME, organism-based.
A short description of data set [28]: Ratio of drug level in C57BL/6 mouse brain to plasma at 0.8 mg/kg administered via oral gavage. It counts as ADME, organism-based. As to conditions: read-out: BPR.
Data set [29] in a line: Cmax in pig-tail monkey plasma at 1.6 mg/kg, iv by LC-MS analysis. It counts as ADME, organism-based. Also noted: dose 1.6 mg/kg, route intravenous. Conditions: macaca nemestrina.
Data set [30] can be described thus: Drug uptake in pig-tail monkey CSF at 1.6 mg/kg, iv measured at 30 mins post dose by LC-MS analysis. It counts as ADME, organism-based, Cerebrospinal fluid. As to conditions: macaca nemestrina, in vivo, 0.5 h.
Data set [31] is described as follows: in vivo. As to conditions: C57BL/6, mouse, plasma, po, 0.8 mg/kg.
Description: AUC (0 to t) in C57BL/6 mouse plasma at 0.8 mg/kg administered via oral gavage measured at 10 to 90 mins post dose by LC-MS analysis
Data set [32] is described as follows: in vivo. Conditions: macaca nemestrina, plasma, iv, 1.6 mg/kg.
Description: AUC (0 to t) in pig-tail monkey plasma at 1.6 mg/kg, iv measured at 0.25 to 6 hrs post dose by LC-MS analysis

Turning to `Cc1oc(=O)oc1COC(=O)N[C@@H](CCC(=O)C=[N+]=[N-])C(=O)OC(C)C`, the remaining at 1 h, 10 µM was 0% in data set [1], 0% in data set [2], 0% in data set [3] and above 90% in data set [4].
Consider `CCOC(=O)[C@H](CCC(=O)C=[N+]=[N-])NC(=O)OCc1oc(=O)oc1C`, for which the remaining at 1 h, 10 µM in data set [1] is 0%; in data set [2], 0%; in [3], 0%; in data set [4] it was above 90%.
Turning to `CC(C)C[C@H](N)C(=O)N[C@@H](CCC(=O)C=[N+]=[N-])C(=O)OC(C)C`, the remaining at 1 h, 10 µM was 0% in data set [1], 1% in [2], 1% in data set [3] and above 90% in data set [4].
In general, Tmax refers to the time at which the peak concentration occurs. For the compound `COC(=O)[C@H](CCC(=O)C=[N+]=[N-])NC(=O)OC(OC(=O)C(C)(C)C)C(C)C` (stereo partly drawn), the remaining at 1 h, 10 µM in data set [1] is 0%; in data set [2], 61%; in data set [3], 91%; in data set [4] it was above 90%. Also, the Cmax stood at 1500 nM in data set [5], 0.64 nmol/g in data set [6] and 2230 nM in data set [11]. For the same compound, the Tmax worked out at 90 min in [7] and 15 min in data set [12]. Further, the results for the AUCt in data set [8], in data set [9] and in data set [13] were 1.22 µM·h, 0.69 nmol·h/g and 5.71 µM·h, respectively. Moreover, the BPR in data set [10] came out at 0.57. In addition, in data set [14], the Drug metabolism amounted to 1.43 nmol/g.
In the case of `CCOC(=O)[C@@H](N)CCC(=O)C=[N+]=[N-]`, the Stability entry in [4] is “Unstable”.
For `CCC(OC(=O)N[C@@H](CCC(=O)C=[N+]=[N-])C(=O)OC)OC(=O)C(C)(C)C` (stereo partly drawn), the remaining at 1 h, 10 µM in data set [1] is 0%; in [2], 75%; in [3], 88%; in data set [4], above 90%.
On to `CCOC(=O)[C@H](CCC(=O)C=[N+]=[N-])NC(=O)[C@@H](N)CC(C)C`, for which the remaining at 1 h, 10 µM in data set [1] is 0%; in data set [2], 1%; in data set [3] it was 1%; in data set [4], above 90%.
For `CC(C)OC(=O)[C@H](CCC(=O)C=[N+]=[N-])NC(=O)OCOC(=O)C(C)(C)C`, the remaining at 1 h, 10 µM in [1] was 0%; in data set [2], 0%; in data set [3] it was 9%; in [4] it was above 90%.
What is called inhibition in vivo is how much of the control response was suppressed. In general, AUC(0-t) refers to the area under the concentration-time curve up to a stated or last time point. For the compound `[N-]=[N+]=CC(=O)CC[C@H](N)C(=O)O` [6-DIAZO-5-OXO-L-NORLEUCINE], the inhibition result in the data set with Mus musculus [15] was “Active”. The Activity is 504 mm3 in data set [16]; 364 mm3 in data set [17]; 256 mm3 in data set [18]; 251 mm3 in [19]; 12% in the data set on Mus musculus [20]; “Toxic” with Mus musculus [21]. Further, the Activity entry in the data set with Mus musculus [22] and with Mus musculus [23] was “Toxic” each time. Moreover, the inhibition in vivo at 0.8 mg/kg in data set [24] is above 50%. In addition, the results for the Cmax in data set [25], in data set [26] and in data set [29] were 2200 nM, 0.56 nmol/g and 12600 nM, respectively. In [27], the Tmax was determined as 10.2 min. Moreover, the Kp in [28] was found to be 0.46. Moreover, the Drug uptake in [30] was determined as 0.33 nmol/g. For the same compound, the figures for the AUC(0-t) in “in vivo [31]” and in the data set “in vivo [32]” were 1.25 µM·h and 42.7 µM·h, respectively.
For the compound `CC(C)OC(=O)[C@@H](N)CCC(=O)C=[N+]=[N-]`, the Stability entry in data set [4] is recorded as “Unstable”.
